The values that follow come from patent US4456611A, “Derivatives of 2-[3-(3-indoly)2-amino propionyloxy] acetic acid, and seritoning increasing use thereof” (Laboratoires Panmedica, priority 1981, dated 1984).

The test system of one series is endogenous serotonin in the brain. As to the kind of experiment: biochemical assay of endogenous serotonin in the brain of rats after oral administration of a single dose. Format: in vivo. Conditions: orally, single dose of 10 mg/kg, Wistar male adult rats. On the procedure:
The compounds according to the invention show remarkable pharmacological activities, in particular on the central nervous system. These assays were carried out after administration orally of a single dose of 10 mg/kg in Wistar male adult rats.
For `CC(OC(=O)COC(=O)[C@@H](N)Cc1c[nH]c2ccc(O)cc12)C(C)(C)C` (stereo partly drawn) [Example 14c, (3,3-dimethyl) 2-butyl L-2-[3-(5-hydroxy 3-indolyl) 2-aminopropionyloxy]acetate], the “% increase of brain serotonin” value is reported as 32%. Turning to `CCCCOC(=O)COC(=O)[C@@H](N)Cc1c[nH]c2ccc(O)cc12` [Example 8b, n-butyl L-2-[3-(5-hydroxy 3-indolyl) 2-aminopropionyloxy]acetate], the “% increase of brain serotonin” value stood at 20%. Turning to `CCCCCCCCOC(=O)COC(=O)[C@@H](N)Cc1c[nH]c2ccc(O)cc12` [Example 12b, n-octyl L-2-[3-(5-hydroxy 3-indolyl) 2-aminopropionyloxy]acetate], the “% increase of brain serotonin” value is reported as 15%. For `N[C@@H](Cc1c[nH]c2ccc(O)cc12)C(=O)O` [(L)5 HTP, 5-hydroxy-tryptophane, reference compound], the “% increase of brain serotonin” value was 10%. As for `CCOC(=O)COC(=O)[C@@H](N)Cc1c[nH]c2ccc(O)cc12` [Example 6b, Ethyl L-2-[3-(5-hydroxy 3-indolyl) 2-aminopropionyloxy]acetate], the “% increase of brain serotonin” value is 22%. Still for that read-out and setting: the figure for `N[C@@H](Cc1c[nH]c2ccc(O)cc12)C(=O)OCC(=O)OCC12CC3CC(CC(C3)C1)C2` [Example 15b, 1-adamantyl methyl L-2-[3-(5-hydroxy 3-indolyl) 2-aminopropionyloxy]acetate] is 17%. For the compound `CCCCCCCCCCCCOC(=O)COC(=O)[C@@H](N)Cc1c[nH]c2ccc(O)cc12` [Example 13b, n-dodecyl L-2-[3-(5-hydroxy 3-indolyl) 2-aminopropionyloxy]acetate], the “% increase of brain serotonin” value stood at 26%.

System in the next series: not listed separately
Nature of the series: acute toxicity in the mouse (LD50). Conditions: in vivo, po, orally. On the procedure:
The acute toxicities of the derivatives according to the invention in the mouse are very much less than those of L 5-HTP. Thus the LD50's of all of the compounds according to the invention are higher than 1250 mg/kg, whereas the LD50 (orally) of L 5-HTP is equal to 700 mg/kg.
As usually defined, the LD50 is the dose expected to kill half of the subjects tested. Lower therefore signals a more toxic substance. With `N[C@@H](Cc1c[nH]c2ccc(O)cc12)C(=O)O` [(L)5 HTP, 5-hydroxy-tryptophane, reference compound], the LD50 was 700 mg/kg.
